Results published in patent US4794187A, “^35 S-labelled 1.4-dihydropyridines” (Bayer Aktiengesellschaft, priority 1986, dated 1988).

What was measured:
skeletal muscle receptor = target: T1, skeletal muscle receptor (Homo sapiens, UniProt Q13698); experiment: binding to the skeletal muscle 1,4-dihydropyridine receptor (radioligand dissociation); conditions: 37° C., read-out: dissociation rate constant (converted)
T1 construct: dissociation rate constant (at 37° C.) of 0.070±0.01 min^-1 on skeletal muscle; from tissue

brain receptor = experiment: binding to the brain 1,4-dihydropyridine receptor (radioligand dissociation); conditions: 37° C.

T1 sequence (Q13698 whole entry): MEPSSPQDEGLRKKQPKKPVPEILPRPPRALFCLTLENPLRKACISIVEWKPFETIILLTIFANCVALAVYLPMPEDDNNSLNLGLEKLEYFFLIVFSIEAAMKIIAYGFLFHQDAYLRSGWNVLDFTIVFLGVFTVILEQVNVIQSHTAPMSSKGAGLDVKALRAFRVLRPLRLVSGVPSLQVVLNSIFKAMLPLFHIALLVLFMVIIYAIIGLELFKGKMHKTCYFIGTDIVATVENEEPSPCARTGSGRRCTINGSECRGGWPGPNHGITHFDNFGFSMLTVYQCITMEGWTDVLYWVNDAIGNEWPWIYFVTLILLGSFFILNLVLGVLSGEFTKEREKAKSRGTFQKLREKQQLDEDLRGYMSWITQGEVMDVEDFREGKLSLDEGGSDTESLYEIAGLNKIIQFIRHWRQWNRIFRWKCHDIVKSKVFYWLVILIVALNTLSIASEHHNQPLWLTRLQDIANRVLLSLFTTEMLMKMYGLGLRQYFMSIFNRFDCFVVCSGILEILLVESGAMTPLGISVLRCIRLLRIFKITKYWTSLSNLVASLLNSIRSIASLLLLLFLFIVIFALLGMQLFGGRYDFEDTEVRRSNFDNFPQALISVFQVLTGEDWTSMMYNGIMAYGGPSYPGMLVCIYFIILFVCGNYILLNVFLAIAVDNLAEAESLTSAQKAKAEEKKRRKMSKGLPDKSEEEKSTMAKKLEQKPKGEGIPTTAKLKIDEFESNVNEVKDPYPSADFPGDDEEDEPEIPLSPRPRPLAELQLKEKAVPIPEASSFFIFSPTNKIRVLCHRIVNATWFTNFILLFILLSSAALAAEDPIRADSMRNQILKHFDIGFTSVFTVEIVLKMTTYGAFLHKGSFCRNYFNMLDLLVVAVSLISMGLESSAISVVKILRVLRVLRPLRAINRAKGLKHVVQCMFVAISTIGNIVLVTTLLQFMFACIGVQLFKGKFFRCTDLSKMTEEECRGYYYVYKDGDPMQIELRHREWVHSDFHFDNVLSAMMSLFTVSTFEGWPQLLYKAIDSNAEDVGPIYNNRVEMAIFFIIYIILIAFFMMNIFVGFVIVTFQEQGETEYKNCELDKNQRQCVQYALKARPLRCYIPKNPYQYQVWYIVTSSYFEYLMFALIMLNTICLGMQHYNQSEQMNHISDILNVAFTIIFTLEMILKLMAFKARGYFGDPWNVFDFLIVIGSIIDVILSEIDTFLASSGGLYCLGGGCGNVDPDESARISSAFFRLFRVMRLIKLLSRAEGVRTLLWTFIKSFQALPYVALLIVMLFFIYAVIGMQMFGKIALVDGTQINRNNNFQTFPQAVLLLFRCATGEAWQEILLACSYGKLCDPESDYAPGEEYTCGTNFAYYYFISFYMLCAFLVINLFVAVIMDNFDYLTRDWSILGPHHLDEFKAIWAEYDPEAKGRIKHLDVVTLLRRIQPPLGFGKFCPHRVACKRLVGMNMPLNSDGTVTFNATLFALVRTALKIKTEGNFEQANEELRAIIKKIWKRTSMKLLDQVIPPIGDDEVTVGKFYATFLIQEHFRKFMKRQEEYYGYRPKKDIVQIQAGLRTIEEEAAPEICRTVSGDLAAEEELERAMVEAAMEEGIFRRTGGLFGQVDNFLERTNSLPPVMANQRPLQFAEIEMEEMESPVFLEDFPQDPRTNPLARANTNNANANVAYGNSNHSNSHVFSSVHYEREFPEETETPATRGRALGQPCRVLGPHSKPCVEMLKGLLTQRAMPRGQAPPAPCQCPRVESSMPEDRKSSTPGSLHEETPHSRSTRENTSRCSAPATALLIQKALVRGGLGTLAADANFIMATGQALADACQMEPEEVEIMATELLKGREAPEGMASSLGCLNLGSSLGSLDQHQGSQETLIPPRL
T1 sequence (P54289 25-957 partner limits assumed): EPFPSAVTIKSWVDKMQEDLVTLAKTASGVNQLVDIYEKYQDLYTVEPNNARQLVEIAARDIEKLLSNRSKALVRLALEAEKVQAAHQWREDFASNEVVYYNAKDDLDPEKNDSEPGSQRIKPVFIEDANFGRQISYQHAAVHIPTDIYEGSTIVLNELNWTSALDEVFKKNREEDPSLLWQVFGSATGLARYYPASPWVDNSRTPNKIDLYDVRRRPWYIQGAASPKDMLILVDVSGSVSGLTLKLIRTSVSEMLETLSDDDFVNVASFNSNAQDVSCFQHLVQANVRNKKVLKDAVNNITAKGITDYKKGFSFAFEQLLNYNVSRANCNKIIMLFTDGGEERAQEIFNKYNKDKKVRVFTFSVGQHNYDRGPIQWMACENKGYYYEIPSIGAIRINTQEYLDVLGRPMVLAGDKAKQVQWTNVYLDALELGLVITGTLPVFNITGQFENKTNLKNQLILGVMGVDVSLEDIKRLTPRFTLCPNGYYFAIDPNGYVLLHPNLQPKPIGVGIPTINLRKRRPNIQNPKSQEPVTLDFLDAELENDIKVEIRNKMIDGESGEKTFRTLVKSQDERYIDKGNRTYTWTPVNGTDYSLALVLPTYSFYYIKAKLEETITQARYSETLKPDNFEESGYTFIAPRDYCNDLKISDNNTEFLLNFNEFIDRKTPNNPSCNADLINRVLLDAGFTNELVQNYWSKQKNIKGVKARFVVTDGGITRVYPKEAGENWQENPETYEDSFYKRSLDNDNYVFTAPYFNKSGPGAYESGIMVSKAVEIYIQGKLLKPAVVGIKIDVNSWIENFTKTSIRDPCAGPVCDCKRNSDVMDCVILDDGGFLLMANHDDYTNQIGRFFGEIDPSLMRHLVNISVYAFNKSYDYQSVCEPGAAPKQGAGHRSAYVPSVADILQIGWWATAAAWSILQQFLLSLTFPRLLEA
T1 sequence (P54289 958-1103 partner limits assumed): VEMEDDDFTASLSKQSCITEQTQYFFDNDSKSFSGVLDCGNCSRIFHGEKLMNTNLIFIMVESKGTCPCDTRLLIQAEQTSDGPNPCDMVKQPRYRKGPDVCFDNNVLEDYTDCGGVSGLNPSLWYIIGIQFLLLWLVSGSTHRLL
T1 sequence (Q02641 whole entry partner): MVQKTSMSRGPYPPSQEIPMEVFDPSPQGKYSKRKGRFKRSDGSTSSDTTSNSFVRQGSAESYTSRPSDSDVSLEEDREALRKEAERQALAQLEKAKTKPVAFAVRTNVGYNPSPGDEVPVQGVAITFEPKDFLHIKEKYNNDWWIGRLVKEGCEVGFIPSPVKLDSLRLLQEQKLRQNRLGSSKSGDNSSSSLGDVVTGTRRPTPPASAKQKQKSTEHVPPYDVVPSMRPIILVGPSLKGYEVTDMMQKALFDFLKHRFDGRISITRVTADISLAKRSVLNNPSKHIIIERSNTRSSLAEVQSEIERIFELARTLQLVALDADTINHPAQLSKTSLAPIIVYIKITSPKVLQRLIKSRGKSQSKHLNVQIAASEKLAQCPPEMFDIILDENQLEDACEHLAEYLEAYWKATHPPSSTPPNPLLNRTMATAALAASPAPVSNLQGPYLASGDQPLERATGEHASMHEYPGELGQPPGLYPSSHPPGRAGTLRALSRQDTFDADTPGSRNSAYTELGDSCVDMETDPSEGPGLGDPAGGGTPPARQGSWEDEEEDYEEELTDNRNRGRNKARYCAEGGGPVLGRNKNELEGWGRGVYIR
T1 sequence (Q06432 whole entry partner): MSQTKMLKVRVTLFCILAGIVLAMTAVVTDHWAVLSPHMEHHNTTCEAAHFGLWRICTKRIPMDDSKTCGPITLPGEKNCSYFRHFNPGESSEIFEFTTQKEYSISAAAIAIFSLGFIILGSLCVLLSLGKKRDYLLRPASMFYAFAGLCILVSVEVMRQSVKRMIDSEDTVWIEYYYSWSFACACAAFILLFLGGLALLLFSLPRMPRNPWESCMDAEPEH

koff (skeletal muscle receptor): 0.00117 s⁻¹
dissociation rate constant (brain receptor): 0.02 min⁻¹
Structure (SMILES): CCOC(=O)C1=C(C)NC(C)=C(C(=O)OCCNC(=O)[C@H](CC[35S]C)NC(=O)OC(C)(C)C)C1c1ccccc1C(F)(F)F (some centres unmarked) [Example 1]
